Measured values taken from patent US12240862B2, “Inhibitors of peptidylarginine deiminases” (Gilead Sciences, Inc., priority 2020, dated 2025).

Target: T1, human PAD4 (Homo sapiens, UniProt Q9UM07)
T1 construct: human PAD4 (NM_012387), A2P663, was PCR amplified; His-SUMO (N, cleaved yes); made in house; host or cells: E. coli BL21(DE3)
Test: In vitro PAD4 BAEE biochemical assay
Settings: human PAD4, BAEE substrate; 5 nM PAD4, 2 mM calcium chloride, 3 mM BAEE; geometric mean of multiple experiments
Method in brief: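 Ammonia generated from BAEE serves as the readout, measured by o-phthalaldehyde after EDTA termination. Final conditions: 5 nM human PAD4 (SUMO tag cleaved), 2 mM CaCl2, 3 mM BAEE, pH 7.6 MOPS buffer, 25 °C for 2 h following a 30-min compound preincubation.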

T1 sequence (Q9UM07 2-663): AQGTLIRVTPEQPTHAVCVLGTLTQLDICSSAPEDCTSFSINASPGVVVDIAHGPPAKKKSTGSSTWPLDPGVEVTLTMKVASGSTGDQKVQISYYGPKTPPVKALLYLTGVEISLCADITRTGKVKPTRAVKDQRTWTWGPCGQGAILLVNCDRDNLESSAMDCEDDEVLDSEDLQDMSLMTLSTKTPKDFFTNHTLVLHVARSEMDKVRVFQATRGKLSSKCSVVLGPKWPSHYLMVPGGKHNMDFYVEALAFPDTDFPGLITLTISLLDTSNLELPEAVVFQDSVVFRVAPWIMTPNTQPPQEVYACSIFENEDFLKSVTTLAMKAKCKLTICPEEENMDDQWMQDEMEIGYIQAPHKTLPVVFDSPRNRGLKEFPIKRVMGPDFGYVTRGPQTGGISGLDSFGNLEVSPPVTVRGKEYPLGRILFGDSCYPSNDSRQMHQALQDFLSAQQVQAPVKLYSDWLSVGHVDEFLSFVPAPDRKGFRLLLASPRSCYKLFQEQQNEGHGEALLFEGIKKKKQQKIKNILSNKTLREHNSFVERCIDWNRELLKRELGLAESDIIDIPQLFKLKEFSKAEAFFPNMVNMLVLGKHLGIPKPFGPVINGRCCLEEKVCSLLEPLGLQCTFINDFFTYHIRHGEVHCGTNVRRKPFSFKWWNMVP

SMILES | IC50 [nM]
COc1cc(C(=O)N2[C@H]3CC[C@@H]2[C@H](N)C3)cc2nc(-c3cc4ccc(N[C@@H](C)C(F)(F)F)nc4n3CC3CC3)c(C)n12 [Example 448, [(1~{R},2~{R},4~{S})-2-amino-7-azabicyclo [2.2.1]heptan-7-yl]-[2-[1-(cyclopropylmethyl)-6-[[(2~{S})-1,1,1-trifluoropropan-2-yl]amino]pyrrolo[2,3-b]pyridin-2-yl]-5-methoxy-3-methylimidazo[1,2-a]pyridin-7-yl]methanone] | 6710
COc1cc(C(=O)N2[C@H]3CC[C@@H]2[C@H](N)C3)cc2nc(-c3cc4ccc(N[C@H](C)C(F)(F)F)nc4n3CC3CC3)c(C)n12 [Example 449] | 6670
COc1cc(C(=O)N2[C@H]3CC[C@@H]2[C@H](N)C3)cc2nc(-c3cc4ccc(N5CCNCCS5(=O)=O)nc4n3CC3CC3)c(C)n12 [Example 450, [(1~{R},2~{R},4~{S})-2-amino-7-azabicyclo [2.2.1]heptan-7-yl]-[2-[1-(cyclopropylmethyl)-6-(1,1-dioxo-1,2,5-thiadiazepan-2-yl)pyrrolo[2,3-b]pyridin-2-yl]-5-methoxy-3-methylimidazo[1,2-a]pyridin-7-yl]methanone] | 21.6
COc1cc(C(=O)N2[C@H]3CC[C@@H]2[C@H](N)C3)cc2nc(-c3cc4ccc(N5CCOCCS5(=O)=O)nc4n3CC3CC3)c(C)n12 [Example 451, [(1~{R},2~{R},4~{S})-2-amino-7-azabicyclo [2.2.1]heptan-7-yl]-[2-[1-(cyclopropylmethyl)-6-(4,4-dioxo-1,4,5-oxathiazepan-5-yl)pyrrolo [2,3-b]pyridin-2-yl]-5-methoxy-3-methylimidazo[1,2-a]pyridin-7-yl]methanone] | 21.8
COc1cc(C(=O)N2[C@H]3CC[C@@H]2[C@H](N)C3)cc2nc(-c3cc4ccc(N5CCCC(C(C)C)S5(=O)=O)nc4n3CC3CC3)c(C)n12 (stereo partly drawn) [Example 452, [(1~{R},2~{R},4~{S})-2-amino-7-azabicyclo [2.2.1]heptan-7-yl]-[2-[1-(cyclopropylmethyl)-6-(1,1-dioxo-6-propan-2-ylthiazinan-2-yl)pyrrolo [2,3-b]pyridin-2-yl]-5-methoxy-3-methylimidazo [1,2-a]pyridin-7-yl]methanone] | 246
COc1cc(C(=O)N2[C@H]3CC[C@@H]2[C@H](N)C3)cc2nc(-c3cc4ccc(N5CC(c6ccccc6)CCS5(=O)=O)nc4n3CC3CC3)c(C)n12 (stereo partly drawn) [Example 453, [(1~{R},2~{R},4~{S})-2-amino-7-azabicyclo [2.2.1]heptan-7-yl]-[2-[1-(cyclopropylmethyl)-6-(1,1-dioxo-4-phenylthiazinan-2-yl)pyrrolo[2,3-b]pyridin-2-yl]-5-methoxy-3-methylimidazo[1,2-a]pyridin-7-yl]methanone] | 9320
COc1cc(C(=O)N2[C@H]3CC[C@@H]2[C@H](N)C3)cc2nc(-c3cc4ccc(N5CCCC(C)S5(=O)=O)nc4n3CC3CC3)c(C)n12 (stereo partly drawn) [Example 454, [(1~{R},2~{R},4~{S})-2-amino-7-azabicyclo [2.2.1]heptan-7-yl]-[2-[1-(cyclopropylmethyl)-6-(6-methyl-1,1-dioxothiazinan-2-yl)pyrrolo [2,3-b]pyridin-2-yl]-5-methoxy-3-methylimidazo[1,2-a]pyridin-7-yl]methanone] | 145
COc1cc(C(=O)N2[C@H]3CC[C@@H]2[C@H](N)C3)cc2nc(-c3cc4ccc(N5CCCN(C)S5(=O)=O)nc4n3CC3CC3)c(C)n12 [Example 455, [(1~{R},2~{R},4~{S})-2-amino-7-azabicyclo [2.2.1]heptan-7-yl]-[2-[1-(cyclopropylmethyl)-6-(6-methyl-1,1-dioxo-1,2,6-thiadiazinan-2-yl)pyrrolo[2,3-b]pyridin-2-yl]-5-methoxy-3-methylimidazo[1,2-a]pyridin-7-yl]methanone] | 113
COc1cc(C(=O)N2[C@H]3CC[C@@H]2[C@H](N)C3)cc2nc(-c3cc4ccc(N5C(=O)CCCC5C)nc4n3CC3CC3)c(C)n12 (stereo partly drawn) [Example 456, 1-[2-[7-[(1~{R},2~{R}, 4~{S})-2-amino-7-azabicyclo[2.2.1]heptane-7-carbonyl]-5-methoxy-3-methylimidazo[1,2-a]pyridin-2-yl]-1-(cyclopropylmethyl)pyrrolo[2,3-b]pyridin-6-yl]-6-methylpiperidin-2-one] | 250
COc1cc(C(=O)N2[C@H]3CC[C@@H]2[C@H](N)C3)cc2nc(-c3cc4ccc(N5CCCC6(CC6)S5(=O)=O)nc4n3CC3CC3)c(C)n12 [Example 457, [(1~{R},2~{R},4~{S})-2-amino-7-azabicyclo [2.2.1]heptan-7-yl]-[2-[1-(cyclopropylmethyl)-6-(4,4-dioxo-4$l^6-thia-5-azaspiro[2.5]octan-5-yl)pyrrolo[2,3-b]pyridin-2-yl]-5-methoxy-3-methylimidazo[1,2-a]pyridin-7-yl]methanone] | 52.2

Further lines, results first:

IC50 [nM] | SMILES
52.3 | COc1cc(C(=O)N2[C@H]3CC[C@@H]2[C@H](N)C3)cc2nc(-c3cc4ccc(N5CCOCS5(=O)=O)nc4n3CC3CC3)c(C)n12 [Example 458, [(1~{R},2~{R},4~{S})-2-amino-7-azabicyclo [2.2.1]heptan-7-yl]-[2-[1-(cyclopropylmethyl)-6-(3,3-dioxo-1,3,4-oxathiazinan-4-yl)pyrrolo [2,3-b]pyridin-2-yl]-5-methoxy-3-methylimidazo[1,2-a]pyridin-7-yl]methanone]
28 | COc1cc(C(=O)N2[C@H]3CC[C@@H]2[C@H](N)C3)cc2nc(-c3cc4ccc(N5CCCCCS5(=O)=O)nc4n3CC3CC3)c(C)n12 [Example 459, [(1~{R},2~{R},4~{S})-2-amino-7-azabicyclo [2.2.1]heptan-7-yl]-[2-[1-(cyclopropylmethyl)-6-(1,1-dioxothiazepan-2-yl)pyrrolo[2,3-b]pyridin-2-yl]-5-methoxy-3-methylimidazo[1,2-a]pyridin-7-yl]methanone]
99.9 | COc1cc(C(=O)N2[C@H]3CC[C@@H]2[C@H](N)C3)cc2nc(-c3cc4ccc(N5CCOc6ccccc6S5(=O)=O)nc4n3CC3CC3)c(C)n12 [Example 460, [(1~{R},2~{R},4~{S})-2-amino-7-azabicyclo [2.2.1]heptan-7-yl]-[2-[1-(cyclopropylmethyl)-6-(1,1-dioxo-3,4-dihydro-5,1$l^6,2-benzoxathiazepin-2-yl)pyrrolo[2,3-b]pyridin-2-yl]-5-methoxy-3-methylimidazo[1,2-a]pyridin-7-yl]methanone]
294 | COc1cc(C(=O)N2[C@H]3CC[C@@H]2[C@H](N)C3)cc2nc(-c3cc4ccc(N5Cc6ccccc6CS5(=O)=O)nc4n3CC3CC3)c(C)n12 [Example 461, [(1~{R},2~{R},4~{S})-2-amino-7-azabicyclo [2.2.1]heptan-7-yl]-[2-[1-(cyclopropylmethyl)-6-(2,2-dioxo-1,4-dihydro-2$l^6,3-benzothiazin-3-yl)pyrrolo[2,3-b]pyridin-2-yl]-5-methoxy-3-methylimidazo[1,2-a]pyridin-7-yl]methanone]
39.7 | COc1cc(C(=O)N2[C@H]3CC[C@@H]2[C@H](N)C3)cc2nc(-c3cc4ccc(N5[C@@H](C)CCCS5(=O)=O)nc4n3CC3CC3)c(C)n12 [Example 462, ((1R,2R,4S)-2-amino-7-azabicyclo[2.2.1]heptan-7-yl)(2-(1-(cyclopropylmethyl)-6-((S)-3-methyl-1,1-dioxido-1,2-thiazinan-2-yl)-1H-pyrrolo[2,3-b]pyridin-2-yl)-5-methoxy-3-methylimidazo[1,2-a]pyridin-7-yl)methanone]
